Assay results published in US20230119539A1, “TRACELESS LINKERS AND PROTEIN-CONJUGATES THEREOF” (Regeneron Pharmaceuticals, Inc., priority 2019, published 2023).

Assays:
[1] = Solubility of quenched linker-payloads; details: Table 3c, linker-payloads quenched with taurine-PEG4-azide or CD-N3
[2] = Solubility of linker-payloads and quenched linker-payloads; type: physicochemical; details: quenched linker-payloads, Table 6a
Excerpt: The quenched linker-payloads were water soluble and used for the pH stability test.

[3] = pH stability of quenched linker-payloads in buffers (LCMS); type: physicochemical; details: RT
Protocol: To a solution of compound (payloads or quenched-linker-payloads) in DMSO (0.2-1.0 mg/mL) was added corresponding PBS buffer (V(buffer)/V(DMSO)=5) to give test samples (pH 3, 4, 5, 6, 7.4, and 8.5, or other special pH). The test samples were incubated at RT for at least 3 days and monitored by LCMS (i.e., at 1 hr, 2 hr, 4 hr, 8 hr, and 1 day, 2 day, 3 day, 4 day, 5 day, 6 day, 7 day, 8 day, 9 day, and 21 day time points). Initial concentrations of the samples were 0.2 mg/mL (DMSO/buffer, v/v=1/5). […] The payloads and quenched linker-payloads were mostly stable at pH >5.0, 6.0, 7.4 and 8.5 after 3 days. In more acidic conditions, such as pH 1.0, the payloads or linker-payloads were easily cleaved to release D*-OH.

Structure (SMILES)	Solubility [1]	Solubility [2]	percentage of the remaining compound ([3]; DMSO, 1 Day)	percentage of the remaining compound ([3]; DMSO, 2 Day)	percentage of the remaining compound ([3]; DMSO, 3 Day)	percentage of the remaining compound ([3]; DMSO, 4 Day)	percentage of the remaining compound ([3]; DMSO, 7 Day)	percentage of the remaining compound ([3]; DMSO, 4 hr)	percentage of the remaining compound ([3]; pH 3.0, 1 Day)	percentage of the remaining compound ([3]; pH 3.0, 4 hr)	percentage of the remaining compound ([3]; pH 4.0, 1 Day)	percentage of the remaining compound ([3]; pH 4.0, 2 Day)	percentage of the remaining compound ([3]; pH 4.0, 3 Day)	percentage of the remaining compound ([3]; pH 4.0, 4 Day)	percentage of the remaining compound ([3]; pH 4.0, 4 hr)	percentage of the remaining compound ([3]; pH 5.0, 1 Day)	percentage of the remaining compound ([3]; pH 5.0, 2 Day)	percentage of the remaining compound ([3]; pH 5.0, 3 Day)	percentage of the remaining compound ([3]; pH 5.0, 4 Day)	percentage of the remaining compound ([3]; pH 5.0, 7 Day)	also measured
CCCC1O[C@@H]2C[C@H]3[C@@H]4CCC5=CC(=O)C=C[C@]5(C)[C@H]4[C@@H](O)C[C@]3(C)[C@]2(C(=O)COC2CCCN2C(=O)CNC(=O)CCOCCOCCOCCOCCNC(=O)CCC(=O)N2Cc3ccccc3-c3c(nnn3CC3OC4OC5C(CO)OC(OC6C(CO)OC(OC7C(CO)OC(OC8C(CO)OC(OC9C(CO)OC(OC3C(O)C4O)C(O)C9O)C(O)C8O)C(O)C7O)C(O)C6O)C(O)C5O)-c3ccccc32)O1 (some centres unmarked) [Q2L6-PII-9]	>1000 µg/mL	>1000 µg/mL	100%	100%	100%	100%	92%	100%	0%	8%	25%	8%	2%	0%	71%	92%	86%	82%	69%	66%	percentage of the remaining compound ([3]; pH 5.0, 4 hr): 100%; percentage of the remaining compound ([3]; pH 7.4, 1 Day): 100%; percentage of the remaining compound ([3]; pH 7.4, 2 Day): 100%; percentage of the remaining compound ([3]; pH 7.4, 3 Day): 100%; percentage of the remaining compound ([3]; pH 7.4, 4 Day): 100%; percentage of the remaining compound ([3]; pH 7.4, 7 Day): 100%; percentage of the remaining compound ([3]; pH 7.4, 1 hr): 100%; percentage of the remaining compound ([3]; pH 7.4, 4 hr): 100%
CCCC1O[C@@H]2C[C@H]3[C@@H]4CCC5=CC(=O)C=C[C@]5(C)[C@H]4[C@@H](O)C[C@]3(C)[C@]2(C(=O)COCNC(=O)CNC(=O)CCC(=O)N2Cc3ccccc3-c3c(nnn3CC3OC4OC5C(CO)OC(OC6C(CO)OC(OC7C(CO)OC(OC8C(CO)OC(OC9C(CO)OC(OC3C(O)C4O)C(O)C9O)C(O)C8O)C(O)C7O)C(O)C6O)C(O)C5O)-c3ccccc32)O1 (some centres unmarked) [Q2L7-PII-1]	>1000 µg/mL	>1000 µg/mL	97%	97%	97%	97%	97%	97%	100%	100%	100%	100%	100%	100%	100%	100%	100%	100%	100%	100%	percentage of the remaining compound ([3]; DMSO, 1 hr): 97%; percentage of the remaining compound ([3]; pH 3.0, 2 Day): 100%; percentage of the remaining compound ([3]; pH 3.0, 3 Day): 96%; percentage of the remaining compound ([3]; pH 3.0, 4 Day): 95%; percentage of the remaining compound ([3]; pH 3.0, 7 Day): 91%; percentage of the remaining compound ([3]; pH 3.0, 1 hr): 100%; percentage of the remaining compound ([3]; pH 4.0, 7 Day): 100%; percentage of the remaining compound ([3]; pH 4.0, 1 hr): 100%; percentage of the remaining compound ([3]; pH 5.0, 1 hr): 100%; percentage of the remaining compound ([3]; pH 5.0, 4 hr): 100%; percentage of the remaining compound ([3]; pH 7.4, 1 Day): 100%; percentage of the remaining compound ([3]; pH 7.4, 2 Day): 100%; percentage of the remaining compound ([3]; pH 7.4, 3 Day): 100%; percentage of the remaining compound ([3]; pH 7.4, 4 Day): 100%; percentage of the remaining compound ([3]; pH 7.4, 7 Day): 100%; percentage of the remaining compound ([3]; pH 7.4, 1 hr): 100%; percentage of the remaining compound ([3]; pH 7.4, 4 hr): 100%
